Data from US20130123355A1, “Fatty acids and metal ions compositions and uses thereof” (priority 2011, published 2013).

Columns and labels:
[1] = test system: Patients presenting symptoms of depression; assay: Hamilton Depression Rating scale and Beck Depression Inventory in depression; format: in vivo, human; conditions: with standard of care
Method: Patients presenting symptoms of depression, in addition to being provided standard of care for depression, are prescribed Mg-DHA or Mg Citrate capsules formulated to provide 150 mg of elemental magnesium, or DHA capsules for two weeks when recovery from depression is assessed.
Patients presenting symptoms of depression, in addition to being provided standard of care for depression, are prescribed Mg-DHA-LysoPC or Mg Citrate capsules formulated to provide 150 mg of elemental magnesium, or DHA-LysoPC capsules for two weeks when recovery from depression is assessed.
Patients presenting symptoms of depression, in addition to being provided standard of care for depression, are prescribed Mg-EPA or Mg Citrate capsules formulated to provide 150 mg of elemental magnesium, or EPA capsules for two weeks when recovery from depression is assessed.
(§1) Patients presenting symptoms of depression, in addition to being provided standard of care for depression, are prescribed Zn-DHA or zinc gluconate capsules formulated to provide a daily dosage of 30 mg of elemental zinc, or DHA capsules for two weeks when recovery from depression is assessed.
as §1, with “Zn-DHA-LysoPC” for “Zn-DHA”, “DHA-LysoPC” for “DHA”
Patients presenting symptoms of depression, in addition to being provided standard of care for depression, are prescribed Zn-EPA or zinc gluconate capsules that provide a daily dosage of 30 mg of elemental Zn, or EPA capsules for two weeks when recovery from depression is assessed.

rats [2] = assay: novel-object-location (NOL) tests; format: in vivo; conditions: diet
Method: Mg-DHA composition is provided as supplement in standard rat feed. On an average, rats consume about 50 mg/Kg/day of elemental Mg, on a feeding schedule so as to maintain 85% of its free-feeding weight. In the control group, rats are fed either DHA or magnesium citrate (Mg Citrate) supplemented diet on schedule similar to test group. After habituation to the apparatus and pre-training, each rat undergoes 4 trials of standard T-maze test (Shoji et al, J. Vis. Exp. (60), e3300, DOI: 10.3791/3300 (2012)) on day 1 or day 21 of Mg-DHA, Mg Citrate, or DHA feeding. Rats are subject to either forced alternation task or left-right discrimination task. Behaviors in the T-maze apparatus is recorded and statistically analyzed by two way repeated measures analysis of variance. […] In another set of experiments, rats fed with DHA, Mg Citrate, or Mg-DHA for 21 days are subject to novel-object-location (NOL) tests.
Mg-DHA composition is provided as supplement in standard rat feed. On an average, rats consume about 50 mg/Kg/day of elemental Mg, on a feeding schedule so as to maintain 85% of its free-feeding weight. In the control group, rats are fed DHA-LysoPC or Mg Citrate supplemented diet on schedule similar to test group. After habituation to the apparatus and pre-training, each rat undergoes 4 trials of standard T-maze test (Shoji et al, J. Vis. Exp. (60), e3300, DOI: 10.3791/3300 (2012)) on day 1 or day 21 of Mg-DHA-LysoPC, Mg Citrate or DHA-LysoPC feeding. Rats are subjected to either forced alternation task or left-right discrimination task. Behaviors in the T-maze apparatus is recorded and statistically analyzed by two way repeated measures analysis of variance. […] In another set of experiments, rats fed with Mg Citrate, DHA-LysoPC, or Mg-DHA-LysoPC for 21 days are subjected to novel-object-location (NOL) tests.
Mg-EPA composition is provided as supplement in standard rat feed. On an average, rats consume about 50 mg/Kg/day of elemental Mg, on a feeding schedule so as to maintain 85% of its free-feeding weight. In the control group, rats are fed EPA or Mg Citrate supplemented diet on scheduled similar to test group. After habituation to the apparatus and pre-training, each rat undergoes 4 trials of standard T-maze test (Shoji et al, J. Vis. Exp. (60), e3300, DOI: 10.3791/3300 (2012)) on day 1 or day 21 of Mg-EPA, Mg Citrate, or EPA feeding. Rats are subjected to either forced alternation task or left-right discrimination task. Behaviors in the T-maze apparatus is recorded and statistically analyzed by two way repeated measures analysis of variance. […]
Zn-DHA composition is provided as supplement in standard rat feed. […] Behaviors in the T-maze apparatus is recorded and statistically analyzed by two way repeated measures analysis of variance. […]

[3] = test system: Patients presenting symptoms of migraine; assay: migraine pain relief on visual analog scale (VAS); format: in vivo, human; conditions: reviewed after 4 hours
Method: Patients presenting symptoms of migraine are prescribed Zn-DHA or zinc gluconate capsules formulated to provide a daily dosage of 30 mg of elemental zinc. The symptoms of migraine are reviewed after 4 hours. […] For each group of patients, Excedrin is prescribed as rescue medicine.
Patients presenting symptoms of migraine are prescribed Zn-DHA-LysoPC or zinc gluconate formulated to provide a daily dosage of 30 mg of elemental zinc. The symptoms of migraine are reviewed after 4 hours. […] For each group of patients, Excedrin is prescribed as rescue medicine.
Patients presenting symptoms of migraine are prescribed Zn-EPA capsules formulated to provide a daily dosage of 30 mg of elemental Zn. The symptoms of migraine are reviewed after 4 hours. […] For each group of patients, Excedrin is prescribed as rescue medicine.

rats [4] = assay: tail flick test; format: in vivo; conditions: diet
Method: On Zn-EPA or zinc gluconate supplemented diet, rats consume about 1 mg/kg body weight/day of elemental zinc, on a feeding schedule so as to maintain 85% of its free-feeding weight.

[5] = 30 mg elemental zinc daily for two weeks, compared with the fatty acid alone or zinc gluconate
[6] = about 1 mg/kg/day elemental Zn for 21 days, compared with the fatty acid alone or zinc gluconate
[7] = 30 mg elemental zinc daily, compared with the fatty acid alone or zinc gluconate
[8] = about 1 mg/kg body weight/day elemental zinc, days 0, 7, 14, 21, compared with zinc gluconate or the fatty acid alone
[9] = 150 mg elemental magnesium for two weeks
[10] = about 50 mg/Kg/day elemental Mg for 21 days, compared with the fatty acid alone or Mg Citrate
[11] = 150 mg elemental magnesium daily, compared with the fatty acid alone or Mg Citrate
[12] = about 50 mg/Kg/day elemental Mg, days 0, 7, 14, 21, compared with Mg Citrate or the fatty acid alone

SMILES | Hamilton Depression Rating scale and Beck Depression Inventory scores [1, 5] | ability to recognize novel objects (rats [2]; [6]) | pain relief on a visual analog scale (VAS) [3, 7] | latency of tail flick reflex (rats [4]; [8]) | Hamilton Depression Rating scale and Beck Depression Inventory scores [1, 9] | ability to recognize novel objects (rats [2]; [10]) | pain relief on a visual analog scale (VAS) [3, 11] | latency of tail flick reflex (rats [4]; [12])
CC/C=C\C/C=C\C/C=C\C/C=C\C/C=C\CCCC(=O)[O-].CC/C=C\C/C=C\C/C=C\C/C=C\C/C=C\CCCC(=O)[O-].[Zn+2] [Zn-EPA] | statistically significant improvement | statistically significant improvement | significant pain relief | Statistically significant increased latency |  |  |  | 
CC/C=C\C/C=C\C/C=C\C/C=C\C/C=C\C/C=C\CCC(=O)[O-].CC/C=C\C/C=C\C/C=C\C/C=C\C/C=C\C/C=C\CCC(=O)[O-].[Zn+2] [Zn-DHA] | statistically significant improvement | statistically significant improvement | significant pain relief | Statistically significant increased latency |  |  |  | 
CC/C=C\C/C=C\C/C=C\C/C=C\C/C=C\CCCC(=O)[O-].CC/C=C\C/C=C\C/C=C\C/C=C\C/C=C\CCCC(=O)[O-].[Mg+2] [Mg-EPA] |  |  |  |  | statistically significant improvement | statistically significant improvement | significant pain relief | Statistically significant increased latency
CC/C=C\C/C=C\C/C=C\C/C=C\C/C=C\C/C=C\CCC(=O)[O-].CC/C=C\C/C=C\C/C=C\C/C=C\C/C=C\C/C=C\CCC(=O)[O-].[Mg+2] [Mg-DHA] |  |  |  |  | statistically significant improvement | statistically significant improvement | significant pain relief | Statistically significant increased latency
